Test results: PubChem BioAssay AID652108 (The Scripps Research Institute Molecular Screening Center, 2013)

Assays:
Test in all cases: PubChem AID 652108
Conditions in all cases: mouse tail flick latency, kappa agonist-induced antinociception
1 hour = system: 1 hour
1 week = system: 1 week
24 hours = system: 24 hours

Work on `COC(=O)c1cc(Br)cnc1N1CCC(NC2CCCCC2)C(O)C1` (configuration not stated) yielded a tail flick latency (1 hour) of 8.07 s, a tail flick latency (1 hour; baseline latency at 0 min) of 4.68 s and a tail flick latency (1 hour; latency at 30 min) of 6.04 s. It also gave a tail flick latency (1 hour; latency at 60 min) of 4.2 s, a tail flick latency (1 week) of 12 s and a tail flick latency (1 week; baseline latency at 0 min) of 3.47 s. It also gave a tail flick latency (1 week; latency at 30 min) of 8.5 s, a tail flick latency (1 week; latency at 60 min) of 3.25 s and a tail flick latency (24 hours) of 13.4 s. The tail flick latency (24 hours; baseline latency at 0 min) was 4.23 s, the tail flick latency (24 hours; latency at 30 min) was 9.11 s and the tail flick latency (24 hours; latency at 60 min) was 5.2 s.
